In US20110136853A1, “LIGAND WITH A BROAD SPECTRUM OF PHARMACOLOGICAL ACTIVITY, A PHARMACEUTICAL COMPOSITION, A MEDICINAL AGENT AND A METHOD OF TREATMENT” (priority 2008, published 2011):
Marks after values point to notes of the source that are not given here.

Experiments:
[1] = target: T1, serotonin 5-HT2C (Homo sapiens, UniProt P28335); experiment: radioligand displacement, serotonin 5-HT2C; type: binding; conditions: human being, ligand 10 μM, duplicates
T1 construct: MDS Pharma Services (contract laboratory)
Method: (§1) The firm MDS Pharma Services [http://www.mdsps.com] carried out this test in duplicates at ligand concentration 10 μM by the displacement of the corresponding radioactive-labeled ligand. Test results, expressed in percent of ligand replacement (%), represented in Table 2 and in FIG. 1.

[2] = target: T2, dopamine D1 (Homo sapiens, UniProt P21728); experiment: radioligand displacement, dopamine D1; type: binding; conditions: dopamine D1, human being; ligand 10 μM, duplicates
T2 construct: MDS Pharma Services (contract laboratory)
Method: as §1

[3] = target: T3, dopamine D3 (Homo sapiens, UniProt P35462); experiment: radioligand displacement, dopamine D3; type: binding; conditions: dopamine D3, human being; ligand 10 μM, duplicates
T3 construct: MDS Pharma Services (contract laboratory)
Method: as §1

[4] = target: T4, histamine H2 (Homo sapiens, UniProt P25021); experiment: radioligand displacement, histamine H2; type: binding; conditions: histamine H2, human being; ligand 10 μM, duplicates
T4 construct: MDS Pharma Services (contract laboratory)
Method: as §1

[5] = target: T5, serotonin 5-HT6 (Homo sapiens, UniProt P50406); experiment: radioligand displacement, serotonin 5-HT6; type: binding; conditions: serotonin 5-HT6, human being; ligand 10 μM, duplicates
T5 construct: MDS Pharma Services (contract laboratory)
Method: as §1

[6] = tested on: sodium channel, site 2; experiment: radioligand displacement, sodium channel site 2; type: binding; conditions: site 2, rat, ligand 10 μM, duplicates
Method: as §1

[7] = target: T6, histamine H1 (Homo sapiens, UniProt P35367); experiment: radioligand displacement, histamine H1; type: binding; conditions: histamine H1, human being; ligand 10 μM, duplicates
T6 construct: MDS Pharma Services (contract laboratory)
Method: as §1

[8] = target: T7, serotonin 5-HT2B (Homo sapiens, UniProt P41595); experiment: radioligand displacement, serotonin 5-HT2B; type: binding; conditions: human being, ligand 10 μM, duplicates
T7 construct: MDS Pharma Services (contract laboratory)
Method: as §1

[9] = target: T8, sigma σ1 (Homo sapiens, UniProt Q99720); experiment: radioligand displacement, sigma σ1; type: binding; conditions: sigma σ1, human being; ligand 10 μM, duplicates
T8 construct: MDS Pharma Services (contract laboratory)
Method: as §1

[10] = target: T9, serotonin 5-HT1B (Homo sapiens, UniProt P28222); experiment: radioligand displacement, serotonin 5-HT1B; type: binding; conditions: human being, ligand 10 μM, duplicates
T9 construct: MDS Pharma Services (contract laboratory)
Method: as §1

[11] = tested on: calcium channel of L-type, benzothiazepine; experiment: radioligand displacement, L-type calcium channel (benzothiazepine); type: binding; conditions: rat, ligand 10 μM, duplicates
Method: as §1

[12] = target: T10, dopamine transporter (DAT) (Homo sapiens, UniProt Q01959); experiment: radioligand displacement, dopamine transporter; type: binding; conditions: human being, ligand 10 μM, duplicates
T10 construct: MDS Pharma Services (contract laboratory)
Method: as §1

[13] = target: T11, norepinephrine transporter (NET) (Homo sapiens, UniProt P23975); experiment: radioligand displacement, norepinephrine transporter; type: binding; conditions: human being, ligand 10 μM, duplicates
T11 construct: MDS Pharma Services (contract laboratory)
Method: as §1

[14] = target: T12, adrenergic β2 (Homo sapiens, UniProt P07550); experiment: radioligand displacement, adrenergic β2; type: binding; conditions: adrenergic β2, human being; ligand 10 μM, duplicates
T12 construct: MDS Pharma Services (contract laboratory)
Method: as §1

[15] = target: T13, sigma σ2 (Rattus norvegicus, UniProt Q5U3Y7); experiment: radioligand displacement, sigma σ2; type: binding; conditions: ligand 10 μM, duplicates
T13 construct: MDS Pharma Services (contract laboratory)
Method: as §1

[16] = target: T14, adrenergic α1A (Rattus norvegicus, UniProt P43140); experiment: radioligand displacement, adrenergic α1A; type: binding; conditions: ligand 10 μM, duplicates
T14 construct: MDS Pharma Services (contract laboratory)
Method: as §1

[17] = target: T15, dopamine D2L (Homo sapiens, UniProt P14416); experiment: radioligand displacement, dopamine D2L; type: binding; conditions: human being, ligand 10 μM, duplicates
T15 construct: MDS Pharma Services (contract laboratory)
Method: as §1

[18] = target: T16, adrenergic α1B (Rattus norvegicus, UniProt P15823); experiment: radioligand displacement, adrenergic α1B; type: binding; conditions: ligand 10 μM, duplicates
T16 construct: MDS Pharma Services (contract laboratory)
Method: as §1

[19] = tested on: male mice of BALB/c line; experiment: Mice Behavior in the Elevated Plus Maze; type: in vivo; conditions: 5 minutes, FIG. 8-10
Method: The length of maze arms makes 30 cm, the width 5 cm, height of walls 15 cm. Two opposite arms are closed from sides and end walls with prasparent walls, the two others are lighted and opened. A mouse was placed in the maze center and during 5 minutes the number of opened and closed arm entries and the time spent by the animals in opened and closed arms were registered. On this evidence indexes of opened arms preference were calculated as a ratio of the number of opened arm entries and also duration of their stay in the opened arms to the total number of entries into all of arms and duration of stay in them. Being in normal state animals avoid opened arms (index of preference makes 0.2-0.3). Compounds with anxiolytic activity (tranquilizing activity) run this value up to 0.5-0.6 and more, and also decrease the number of defecations without changing overall physical activity (general number of arm entries).

[20] = target: T17, dopamine D2S (Homo sapiens, UniProt P14416); experiment: radioligand displacement, dopamine D2S; type: binding; conditions: human being, ligand 10 μM, duplicates
T17 construct: MDS Pharma Services (contract laboratory)
Method: as §1

[21] = target: T18, adrenergic α2A (Homo sapiens, UniProt P08913); experiment: radioligand displacement, adrenergic α2A; type: binding; conditions: human being, ligand 10 μM, duplicates
T18 construct: MDS Pharma Services (contract laboratory)
Method: as §1

[22] = target: T19, serotonin 5-HT7 (Homo sapiens, UniProt P34969); experiment: radioligand displacement, serotonin 5-HT7; type: binding; conditions: serotonin 5-HT7, human being; ligand 10 μM, duplicates
T19 construct: MDS Pharma Services (contract laboratory)
Method: as §1

T8 sequence (Q99720 whole entry): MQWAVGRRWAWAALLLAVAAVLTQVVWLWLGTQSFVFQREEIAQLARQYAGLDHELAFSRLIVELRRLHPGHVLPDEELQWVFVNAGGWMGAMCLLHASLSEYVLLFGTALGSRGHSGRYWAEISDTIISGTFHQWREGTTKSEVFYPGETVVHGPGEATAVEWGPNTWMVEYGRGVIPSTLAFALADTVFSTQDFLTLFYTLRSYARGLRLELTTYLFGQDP
T7 sequence (P41595 whole entry): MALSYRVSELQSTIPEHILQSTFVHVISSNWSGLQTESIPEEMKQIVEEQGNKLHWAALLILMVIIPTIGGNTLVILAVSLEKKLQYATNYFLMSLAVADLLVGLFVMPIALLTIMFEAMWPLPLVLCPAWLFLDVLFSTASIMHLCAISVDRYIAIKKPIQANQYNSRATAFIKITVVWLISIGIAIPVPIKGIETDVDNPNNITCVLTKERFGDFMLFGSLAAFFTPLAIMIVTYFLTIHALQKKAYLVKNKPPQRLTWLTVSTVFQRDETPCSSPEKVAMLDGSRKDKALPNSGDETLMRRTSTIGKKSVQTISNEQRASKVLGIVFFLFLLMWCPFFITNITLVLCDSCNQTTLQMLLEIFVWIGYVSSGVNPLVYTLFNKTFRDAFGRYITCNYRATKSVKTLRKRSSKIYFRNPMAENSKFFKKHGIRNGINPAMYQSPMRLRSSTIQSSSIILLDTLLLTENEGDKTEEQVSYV
T9 sequence (P28222 whole entry): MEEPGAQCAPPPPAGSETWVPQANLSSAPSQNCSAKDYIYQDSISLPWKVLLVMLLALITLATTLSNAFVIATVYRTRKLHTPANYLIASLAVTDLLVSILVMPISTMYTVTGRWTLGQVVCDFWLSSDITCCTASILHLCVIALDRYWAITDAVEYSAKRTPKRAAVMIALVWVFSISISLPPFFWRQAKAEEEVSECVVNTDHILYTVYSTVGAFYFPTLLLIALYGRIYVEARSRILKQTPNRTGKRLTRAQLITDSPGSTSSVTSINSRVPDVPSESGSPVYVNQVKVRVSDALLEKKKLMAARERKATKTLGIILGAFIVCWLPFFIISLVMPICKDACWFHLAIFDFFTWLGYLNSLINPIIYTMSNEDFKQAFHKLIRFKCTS
T11 sequence (P23975 whole entry): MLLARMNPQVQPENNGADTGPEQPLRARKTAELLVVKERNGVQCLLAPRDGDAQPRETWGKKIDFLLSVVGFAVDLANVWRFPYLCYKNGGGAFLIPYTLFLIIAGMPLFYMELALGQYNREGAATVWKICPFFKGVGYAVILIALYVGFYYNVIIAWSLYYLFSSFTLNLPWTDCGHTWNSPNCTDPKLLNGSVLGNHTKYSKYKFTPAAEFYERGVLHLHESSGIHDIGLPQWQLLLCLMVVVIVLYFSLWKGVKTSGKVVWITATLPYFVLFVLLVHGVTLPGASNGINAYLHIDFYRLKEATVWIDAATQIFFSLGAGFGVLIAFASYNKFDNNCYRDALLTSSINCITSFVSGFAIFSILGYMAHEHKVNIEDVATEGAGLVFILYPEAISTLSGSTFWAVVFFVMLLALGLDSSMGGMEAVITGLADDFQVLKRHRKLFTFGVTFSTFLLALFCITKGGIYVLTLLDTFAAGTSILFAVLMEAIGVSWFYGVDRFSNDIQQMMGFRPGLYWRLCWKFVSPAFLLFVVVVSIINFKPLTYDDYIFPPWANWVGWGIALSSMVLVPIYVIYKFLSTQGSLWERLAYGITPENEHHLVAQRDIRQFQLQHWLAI
T1 sequence (P28335 33-458): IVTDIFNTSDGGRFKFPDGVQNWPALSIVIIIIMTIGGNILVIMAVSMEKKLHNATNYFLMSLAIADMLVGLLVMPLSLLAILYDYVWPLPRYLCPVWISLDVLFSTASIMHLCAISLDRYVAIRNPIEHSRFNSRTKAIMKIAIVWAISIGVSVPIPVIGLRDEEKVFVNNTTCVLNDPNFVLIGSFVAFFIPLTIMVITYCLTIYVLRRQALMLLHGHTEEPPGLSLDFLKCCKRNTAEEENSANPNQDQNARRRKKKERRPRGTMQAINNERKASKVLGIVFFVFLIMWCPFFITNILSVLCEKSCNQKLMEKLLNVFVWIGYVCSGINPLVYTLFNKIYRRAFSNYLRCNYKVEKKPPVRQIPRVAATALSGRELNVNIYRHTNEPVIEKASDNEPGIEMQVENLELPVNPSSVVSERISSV
T18 sequence (P08913 whole entry): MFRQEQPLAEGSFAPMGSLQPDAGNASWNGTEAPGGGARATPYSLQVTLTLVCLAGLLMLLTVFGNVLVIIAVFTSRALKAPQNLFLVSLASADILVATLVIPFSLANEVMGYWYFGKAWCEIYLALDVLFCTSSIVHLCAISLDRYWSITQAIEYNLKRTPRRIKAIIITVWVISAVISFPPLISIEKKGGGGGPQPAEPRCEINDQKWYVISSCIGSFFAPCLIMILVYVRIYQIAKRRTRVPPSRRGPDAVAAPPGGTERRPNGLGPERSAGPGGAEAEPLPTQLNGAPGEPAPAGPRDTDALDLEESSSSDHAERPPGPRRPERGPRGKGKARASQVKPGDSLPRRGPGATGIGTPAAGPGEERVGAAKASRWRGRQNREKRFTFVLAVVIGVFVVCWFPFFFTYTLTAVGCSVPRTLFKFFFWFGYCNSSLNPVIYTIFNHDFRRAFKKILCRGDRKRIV
T10 sequence (Q01959 whole entry): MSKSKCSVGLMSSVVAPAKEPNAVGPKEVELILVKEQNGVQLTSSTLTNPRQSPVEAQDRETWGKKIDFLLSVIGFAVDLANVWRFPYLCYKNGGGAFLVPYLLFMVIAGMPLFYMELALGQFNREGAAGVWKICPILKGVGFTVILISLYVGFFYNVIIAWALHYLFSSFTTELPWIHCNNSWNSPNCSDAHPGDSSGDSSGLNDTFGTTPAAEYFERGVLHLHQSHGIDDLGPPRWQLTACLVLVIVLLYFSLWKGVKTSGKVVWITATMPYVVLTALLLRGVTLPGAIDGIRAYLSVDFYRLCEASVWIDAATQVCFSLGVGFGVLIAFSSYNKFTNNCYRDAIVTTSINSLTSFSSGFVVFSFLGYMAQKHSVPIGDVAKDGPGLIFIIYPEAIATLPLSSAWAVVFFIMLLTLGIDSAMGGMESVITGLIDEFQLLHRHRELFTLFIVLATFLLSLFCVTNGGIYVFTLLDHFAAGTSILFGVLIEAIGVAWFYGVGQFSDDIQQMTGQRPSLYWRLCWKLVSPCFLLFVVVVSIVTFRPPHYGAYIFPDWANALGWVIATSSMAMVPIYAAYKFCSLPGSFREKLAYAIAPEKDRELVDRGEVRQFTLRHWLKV
T15 sequence (P14416 whole entry): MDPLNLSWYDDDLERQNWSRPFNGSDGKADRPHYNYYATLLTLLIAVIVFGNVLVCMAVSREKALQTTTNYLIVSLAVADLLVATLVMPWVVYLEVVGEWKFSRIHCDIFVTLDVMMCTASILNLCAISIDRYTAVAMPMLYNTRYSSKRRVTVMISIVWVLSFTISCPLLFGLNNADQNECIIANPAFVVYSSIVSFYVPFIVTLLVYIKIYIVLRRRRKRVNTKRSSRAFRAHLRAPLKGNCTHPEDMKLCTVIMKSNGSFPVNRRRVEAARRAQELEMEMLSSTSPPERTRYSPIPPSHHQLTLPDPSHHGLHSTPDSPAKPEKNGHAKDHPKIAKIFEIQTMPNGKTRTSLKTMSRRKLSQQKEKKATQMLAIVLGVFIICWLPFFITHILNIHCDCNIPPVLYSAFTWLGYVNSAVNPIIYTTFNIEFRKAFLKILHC
T13 sequence (Q5U3Y7 whole entry): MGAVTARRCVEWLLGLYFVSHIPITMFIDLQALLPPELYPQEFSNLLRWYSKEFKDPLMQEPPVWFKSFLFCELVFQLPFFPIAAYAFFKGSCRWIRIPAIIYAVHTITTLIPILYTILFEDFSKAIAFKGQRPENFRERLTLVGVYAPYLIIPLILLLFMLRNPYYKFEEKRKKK
T14 sequence (P43140 whole entry): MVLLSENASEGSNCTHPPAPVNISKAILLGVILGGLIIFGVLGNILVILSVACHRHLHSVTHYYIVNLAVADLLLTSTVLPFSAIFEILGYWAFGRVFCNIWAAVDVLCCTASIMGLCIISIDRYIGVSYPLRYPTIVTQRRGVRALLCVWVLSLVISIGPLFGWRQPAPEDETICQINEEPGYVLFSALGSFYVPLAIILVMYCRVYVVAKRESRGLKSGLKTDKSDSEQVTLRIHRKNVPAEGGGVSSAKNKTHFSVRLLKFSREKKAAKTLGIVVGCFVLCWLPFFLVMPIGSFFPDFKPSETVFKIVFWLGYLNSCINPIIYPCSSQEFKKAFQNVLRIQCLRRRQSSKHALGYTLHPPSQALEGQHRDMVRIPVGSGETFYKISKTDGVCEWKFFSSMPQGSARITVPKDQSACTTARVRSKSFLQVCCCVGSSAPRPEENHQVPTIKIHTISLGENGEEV
T12 sequence (P07550 whole entry): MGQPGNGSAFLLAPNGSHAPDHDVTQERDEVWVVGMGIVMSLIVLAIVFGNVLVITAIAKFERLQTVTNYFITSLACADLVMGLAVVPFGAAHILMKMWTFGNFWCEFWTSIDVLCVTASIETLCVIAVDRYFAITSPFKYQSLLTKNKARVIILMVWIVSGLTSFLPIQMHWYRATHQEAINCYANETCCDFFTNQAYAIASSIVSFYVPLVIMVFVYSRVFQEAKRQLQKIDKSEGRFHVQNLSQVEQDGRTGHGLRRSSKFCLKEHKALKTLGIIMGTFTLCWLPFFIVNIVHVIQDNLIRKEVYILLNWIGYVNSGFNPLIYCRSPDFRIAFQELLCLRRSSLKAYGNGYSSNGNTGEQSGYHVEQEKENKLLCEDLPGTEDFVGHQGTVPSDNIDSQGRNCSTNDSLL

## CN1CCc2c(c3ccccc3n2Cc2ccccc2)C1 [formula 1, 3-methyl-9-benzyl-1,2,3,4-tetrahydrocarboline naphthalene-1,5-disulfonate]
[1]
  % of radioactive-labeled ligand replacement: 79%
[2]
  % of radioactive-labeled ligand replacement: 62%
[3]
  % of radioactive-labeled ligand replacement: 80%
[4]
  % of radioactive-labeled ligand replacement: 97%
[5]
  % of radioactive-labeled ligand replacement: 79%
[6]
  % of radioactive-labeled ligand replacement: 93%
[7]
  % of radioactive-labeled ligand replacement: 97%
[8]
  % of radioactive-labeled ligand replacement: 52%
[9]
  % of radioactive-labeled ligand replacement: 75%
[10]
  % of radioactive-labeled ligand replacement: 64* %
[11]
  % of radioactive-labeled ligand replacement: 65%
[12]
  % of radioactive-labeled ligand replacement: 99%
[13]
  % of radioactive-labeled ligand replacement: 67%
[14]
  % of radioactive-labeled ligand replacement: 76%
[15]
  % of radioactive-labeled ligand replacement: 52%
[16]
  % of radioactive-labeled ligand replacement: 70%
[17]
  % of radioactive-labeled ligand replacement: 51%
[18]
  % of radioactive-labeled ligand replacement: 70%
[19]
  anxiolytic (tranquilizing) action: anxiolytic (tranquilizing) activity comparable with the activity of Buspirone and Lorazepam
[20]
  % of radioactive-labeled ligand replacement: 60%
[21]
  % of radioactive-labeled ligand replacement: 100%
[22]
  % of radioactive-labeled ligand replacement: 76%
